Experimental data from paper PMC4769088, “Antifungal Activity and Action Mechanism of Histatin 5-Halocidin Hybrid Peptides against Candida ssp” (PLoS ONE, 2016).
Where two headings read alike, the source gives them in different places. Where a SMILES comes first, the peptide text is derived from it. Bridges are numbered along the chain shown (N, C = ends). Roman numbers before positions name the chains, in order. Where no end group is shown, it is not given here.

Assays:
[1] = system: C.albicans CCARM 14021; type: cell-based, Candida albicans
Method: (§1) To determine the candidacidal activity of the peptides, we used Candida strains obtained from the Culture collection of antimicrobial resistant microbes at Seoul Women’s University in Korea. These included three Candida albicans (CCARM 14020, 14021, 14022), Candida guillermondi and Candida tropicalis. In addition, Candida albicans SC5413 was kindly provided by Dr Jeong-Yoon Kim at the Department of Microbiology & Molecular Biology, Chungnam University, Korea. Yeast were cultured overnight at 30°C in 10 ml of yeast extract-peptone-dextrose (YPD) broth (Qbiogene), then diluted in 10 ml of YPD broth to OD600 = 0.2 and grown for an additional 4 h with shaking at 30°C until OD600 = 0.8 in order to obtain mid-log phase cultures. The peptides (Hst 5, P113, HHP1, HHP2, PH1, PH2, di-PH1, di-PH2, WP1, di-WP2, di-15Hc and di-18Hc) in this study were synthesized by using standard solid-phase synthesis protocols and were purified by reversed-phase high-performance liquid chromatography at Anygen Inc. (Korea). FITC-labeled peptides (F-Hst5, F-P113, F-HHP1, F-di-PH2, F-di-WP2 and F-di-18Hc) were also synthesized by 6-aminohexnoic acid linker at Anygen (Korea) for confocal experiments.
(§2) The candidacidal activities of the peptides were tested by using standard microdilution plate assays, radial diffusion assays and broth dilution assay slightly modified from the procedure recommended by the National Committee for Clinical Laboratory Standards. For the candidacidal assays, C. albicans cells were grown in YPD medium and washed twice with 10 mM sodium phosphate buffer (NaPB; Na2HPO4, NaH2PO4, pH 7.4). The cells (1 x 10^6) were then mixed with different concentrations of peptides and incubated at 30°C with constant shaking for 60 min. For energy depletion experiments, cells were pre-incubated with 10 mM NaPB containing 5 mM NaN3 at 30°C for 60 min before the addition of peptides. The cell suspensions were diluted in 10 mM NaPB and aliquots of 500 cells were spread onto YPD agar plates then incubated for 24 h at 30°C to visualize the surviving colonies. Cell survival was expressed as a percentage of that for the control, and the loss of viability was calculated as [1 x (number of colonies from peptide-treated cells/number of colonies from control cells)] x 100. Candidacidal assays were performed in triplicate. For the radial diffusion assay, C. albicans cells were grown in YPD medium overnight and washed twice with 10 mM NaPB. Washed yeast-phase C. albicans cells (1 x 10^6 CFU) were trapped in thin underlay gels containing 9 mM sodium phosphate, 1 mM sodium citrate buffer, 1% (wt/vol) agarose (A6013; Sigma), and 0.3 mg of Sabouraud dextrose broth (Difco)/ml. After incubation at 37°C for 3 h, a 10 ml overlay gel of 1% agarose and 6% Sabouraud dextrose broth was poured on the underlay gel and then the plates were incubated overnight at 37°C. The clear-zone diameters were measured to the nearest 0.1 mm and graphed against the peptide concentration. Zone diameters were expressed in units (0.1 mm = 1 unit). For the broth dilution assay, the Candida strains were cultured in LYM broth for 18 h at 30°C. The numbers of yeasts were counted using a hemocytometer. Stock peptide solutions were prepared to a concentration of 320 μg/ml in distilled water, and were then serially diluted twofold, to 5 μg/ml. 100 μl aliquots of the diluted culture media containing candida cells (1 x 10^3) were dispensed into the wells of 96-well polypropylene microtiter plates (Costar 3879, Corning, NY), to which peptide solution (11 μl) was then added. In the experiments conducted to assess the candidacidal activity of peptides in the presence of salt, we used LYM supplemented with 150 mM NaCl for the culture medium, which was mixed with the peptide solution. The antifungal activities were evaluated after 24 h of incubation at 30°C by the observation of visible turbidity the wells. […]

[2] = system: C.albicans CCARM 14020; type: cell-based, Candida albicans
Method: as §1, §2

[3] = system: C.albicans CCARM 14022; type: cell-based, Candida albicans
Method: as §1, §2

[4] = system: C.albicans SC5413; type: cell-based, Candida albicans
Method: as §1, §2

[5] = system: C. albicans strains; experiment: Broth dilution assay (MIC), C. albicans strains; type: cell-based, Candida albicans; details: for killing activities against C. albicans strains in 150 mM salt: 150 mM NaCl; for decrease of killing activities in 150 mM salt: 150 mM NaCl versus no salt, C. albicans strains
Method: as §1
as §2, with “100 μl aliquots of the diluted culture media containing candida cells (1 x 10^3) were dispensed into the wells of 96-well polypropylene microtiter plates (Costar 3879, Corning, NY), to which peptide solution (11 μl) was then added. In the experiments conducted to assess the candidacidal activity of peptides in the presence of salt, we used LYM supplemented with 150 mM NaCl for the culture medium, which was mixed with the peptide solution.” left out

[6] = system: Candida albicans cells; experiment: Confocal microscopy localization and FITC-peptide/PI uptake assay; type: cell-based; details: FITC-peptides and propidium iodide uptake assay, measured for 60 min
Method: To confirm the killing effect of the peptides, washed Candida cells (1 × 10^7 cells/ml) were treated with the peptides and propidium iodide (PI) was added. For energy depletion experiments, cells were pre-incubated with 10 mM NaPB containing 5 mM NaN3 at 30°C for 60 min before the addition of peptides. Propidium iodide (PI) uptake was measured using a multi reader and calculated with the formula [propidium iodide (PI) uptake value of peptide-treated cells—propidium iodide (PI) value of control cells] C. albicans cells were attached to concanavalin A (Sigma, 1 mg/ml solution in water) coated coverglass in chambered wells (Lab-Tek II). Cells (1 x 10^6) were deposited in each well, and 1 ml of 10 mM NaPB containing 5 μg PI (Sigma) and FITC-labeled peptides (Final concentration 10 μg/ml) were added to the chamber. Confocal images were acquired with an Olympus Fluoview FV10i-DOC (Olympus, Tokyo, Japan). ImageJ software was used for image acquisition and analysis.  Fig 5 Localizations of FITC-peptides in Candida albicans cells. C. albicans cells were incubated for 10 minutes with 10 μg/ml of FITC-peptides and visualized by confocal microscopy. […] FITC-peptides and PI uptake was measured for 60 min in Perkin Elmer 2030 reader (VictorX 3).

[7] = NaCl 150 mM, LYM supplemented with 150 mM NaCl, 24 h at 30°C

Molecule: C[C@H](NC(=O)[C@H](Cc1c[nH]cn1)NC(=O)[C@H](CO)NC(=O)[C@@H](N)CC(=O)O)C(=O)N[C@@H](CCCCN)C(=O)N[C@@H](CCCNC(=N)N)C(=O)N[C@@H](Cc1c[nH]cn1)C(=O)N[C@@H](Cc1c[nH]cn1)C(=O)NCC(=O)N[C@@H](Cc1ccc(O)cc1)C(=O)N[C@@H](CCCCN)C(=O)N[C@@H](CCCNC(=N)N)C(=O)N[C@@H](CCCCN)C(=O)N[C@@H](Cc1ccccc1)C(=O)N[C@@H](Cc1c[nH]cn1)C(=O)N[C@@H](CCC(=O)O)C(=O)N[C@@H](CCCCN)C(=O)N[C@@H](Cc1c[nH]cn1)C(=O)N[C@@H](Cc1c[nH]cn1)C(=O)N[C@@H](CO)C(=O)N[C@@H](Cc1c[nH]cn1)C(=O)N[C@@H](CCCNC(=N)N)C(=O)NCC(=O)N[C@@H](Cc1ccc(O)cc1)C(=O)O [Hst 5, Histatin 5]
- MICs ([1]; CCARM 14021, 24 h): 4 to 8 µg/mL
- MICs [1, 7]: 32< μg/ml
- MICs ([2]; CCARM 14020, 24 h): 8 to 16 µg/mL
- MICs [2, 7]: 32< μg/ml
- MICs ([3]; CCARM 14022, 24 h): 8 to 16 µg/mL
- MICs [3, 7]: 32< μg/ml
- MICs [4, 7]: 32< μg/ml
- MICs ([4]; SC5413, 24 h): 8 to 16 µg/mL
- killing activities against C. albicans strains in 150 mM salt [5]: abolished
- FITC intensity in Candida cells [6]: increased in a time dependent manner

Molecule: CC(C)C[C@H](NC(=O)CNC(=O)[C@H](Cc1c[nH]cn1)NC(=O)[C@H](Cc1c[nH]cn1)NC(=O)[C@H](CC(C)C)NC(=O)[C@H](CC(C)C)NC(=O)[C@H](C)NC(=O)[C@H](CC(N)=O)NC(=O)[C@H](CC(C)C)NC(=O)[C@@H](N)Cc1c[nH]c2ccccc12)C(=O)N[C@@H](CC(N)=O)C(=O)N[C@@H](CSSC[C@H](NC(=O)[C@H](CC(N)=O)NC(=O)[C@H](CC(C)C)NC(=O)CNC(=O)[C@H](Cc1c[nH]cn1)NC(=O)[C@H](Cc1c[nH]cn1)NC(=O)[C@H](CC(C)C)NC(=O)[C@H](CC(C)C)NC(=O)[C@H](C)NC(=O)[C@H](CC(N)=O)NC(=O)[C@H](CC(C)C)NC(=O)[C@@H](N)Cc1c[nH]c2ccccc12)C(=O)N[C@@H](C)C(=O)N[C@@H](CCCCN)C(=O)NCC(=O)N[C@H](C(=O)N[C@@H](CC(C)C)C(=O)N[C@@H](C)C(N)=O)C(C)C)C(=O)N[C@@H](C)C(=O)N[C@@H](CCCCN)C(=O)NCC(=O)N[C@H](C(=O)N[C@@H](CC(C)C)C(=O)N[C@@H](C)C(N)=O)C(C)C [di-18Hc, reference compound] (I: H-WLNALLHHGLNCAKGVLA-NH2 / II: H-WLNALLHHGLNCAKGVLA-NH2; disulfide I:12-II:12 (inferred); N-terminus assumed)
- decrease of killing activities in 150 mM salt [5]: 4-8 fold

Molecule: CC(C)C[C@H](NC(=O)CNC(=O)[C@H](Cc1c[nH]cn1)NC(=O)[C@H](Cc1c[nH]cn1)NC(=O)[C@H](CCCNC(=N)N)NC(=O)[C@H](CCCCN)NC(=O)[C@H](C)N)C(=O)N[C@@H](CC(N)=O)C(=O)N[C@@H](CSSC[C@H](NC(=O)[C@H](CC(N)=O)NC(=O)[C@H](CC(C)C)NC(=O)CNC(=O)[C@H](Cc1c[nH]cn1)NC(=O)[C@H](Cc1c[nH]cn1)NC(=O)[C@H](CCCNC(=N)N)NC(=O)[C@H](CCCCN)NC(=O)[C@H](C)N)C(=O)N[C@@H](C)C(=O)N[C@@H](CCCCN)C(=O)N[C@@H](Cc1ccccc1)C(=O)N[C@@H](Cc1c[nH]cn1)C(N)=O)C(=O)N[C@@H](C)C(=O)N[C@@H](CCCCN)C(=O)N[C@@H](Cc1ccccc1)C(=O)N[C@@H](Cc1c[nH]cn1)C(N)=O [di-PH2] (I: H-AKRHHGLNCAKFH-NH2 / II: H-AKRHHGLNCAKFH-NH2; disulfide I:9-II:9 (inferred); N-terminus assumed)
- MICs ([1]; CCARM 14021, 24 h): 1 to 2 µg/mL
- MICs [1, 7]: 32< μg/ml
- MICs ([2]; CCARM 14020, 24 h): 1 to 2 µg/mL
- MICs [2, 7]: 32< μg/ml
- MICs ([3]; CCARM 14022, 24 h): 2 to 4 µg/mL
- MICs [3, 7]: 32< μg/ml
- MICs [4, 7]: 32< μg/ml
- MICs ([4]; SC5413, 24 h): 1 to 2 µg/mL
- killing activities against C. albicans strains in 150 mM salt [5]: abolished
- FITC intensity in Candida cells [6]: increased in a time dependent manner

Molecule: CC(C)C[C@H](NC(=O)[C@@H](N)Cc1c[nH]c2ccccc12)C(=O)N[C@@H](CC(N)=O)C(=O)N[C@@H](C)C(=O)N[C@@H](CCCCN)C(=O)N[C@@H](CCCNC(=N)N)C(=O)N[C@@H](Cc1c[nH]cn1)C(=O)N[C@@H](Cc1c[nH]cn1)C(=O)NCC(=O)N[C@@H](Cc1ccc(O)cc1)C(=O)N[C@@H](CCCCN)C(=O)N[C@@H](CSSC[C@H](NC(=O)[C@H](CCCCN)NC(=O)[C@H](Cc1ccc(O)cc1)NC(=O)CNC(=O)[C@H](Cc1c[nH]cn1)NC(=O)[C@H](Cc1c[nH]cn1)NC(=O)[C@H](CCCNC(=N)N)NC(=O)[C@H](CCCCN)NC(=O)[C@H](C)NC(=O)[C@H](CC(N)=O)NC(=O)[C@H](CC(C)C)NC(=O)[C@@H](N)Cc1c[nH]c2ccccc12)C(=O)N[C@@H](CCCCN)C(=O)N[C@@H](Cc1ccccc1)C(=O)N[C@@H](Cc1c[nH]cn1)C(N)=O)C(=O)N[C@@H](CCCCN)C(=O)N[C@@H](Cc1ccccc1)C(=O)N[C@@H](Cc1c[nH]cn1)C(N)=O [di-WP2] (I: H-WLNAKRHHGYKCKFH-NH2 / II: H-WLNAKRHHGYKCKFH-NH2; disulfide I:12-II:12 (inferred); N-terminus assumed)
- decrease of killing activities in 150 mM salt [5]: 4-8 fold

Molecule: AKRHHGYKRKFH-NH2 [P113]
- MICs ([1]; CCARM 14021, 24 h): 4 to 8 µg/mL
- MICs [1, 7]: 32< μg/ml
- MICs ([2]; CCARM 14020, 24 h): 4 to 8 µg/mL
- MICs [2, 7]: 32< μg/ml
- MICs ([3]; CCARM 14022, 24 h): 8 to 16 µg/mL
- MICs [3, 7]: 32< μg/ml
- MICs [4, 7]: 32< μg/ml
- MICs ([4]; SC5413, 24 h): 4 to 8 µg/mL
- killing activities against C. albicans strains in 150 mM salt [5]: abolished
- FITC intensity in Candida cells [6]: increased in a time dependent manner
